Laboratory results from patent US8501787B2, “Compounds for the inhibition of angiogenesis and use thereof” (Shire Orphan Therapies GmbH, priority 2004, dated 2013).

Biological target: T1, integrin alpha5beta1 (Homo sapiens, UniProt P05556+P08648)
T1 construct: The integrin alpha5beta1 extracellular domain Fc-fusion was expressed and purified; made in house
Experiment: Alpha5beta1-Fibronectin binding assay (competitive ELISA)
Conditions: method of section 1.1; read-out: Group (binding activities to integrin alpha5beta1)
Experimental: The optimal concentrations of integrin and ligand were selected from ELISA binding studies with variable concentrations of both to obtain optimal signal noise ratio for further studies. IC50 studies were performed with fixed concentration of ligand and integrin and a serial dilution of inhibitor. The plates were measured with SpectraMax Plus reader (Molecular Devices). The resulting inhibition curves were analyzed using SoftMaxPro 4.0 software, the turning point describes the IC50 value.
Fibronectin and Vitronectin were purchased from Sigma, fibrinogen from Calbiochem. (EMD Biosciences, Darmstadt, Germany) The integrin alpha5beta1 extracellular domain Fc-fusion was expressed and purified as described in (Coe, 2001, JBC, 276, 35854). Integrins alphavbeta3 and alphavbeta5 were purchased from Chemicon (Chemicon Europe, Germany) and alphaIIbbeta3 form Kordia (Kordia Life Science, Leiden, Netherlands)
Fibronectin was diluted with coating buffer (15 mM Na2CO3, 35 mM NaHCO3, pH9.6) and coated with 100 μL/well to Nunc-Immuno maxisorp plates (Nalge Nunc Europe Ltd) over night at 4° C. After discarding the coating solution plates were washed 3 times with buffer 1 ([…], pH7.6, 150 mM NaCl, 1 mM […], 1 mg/mL BSA) and blocked with 100 μL blocking buffer (3% BSA in PBS 0.1% Tween20) for 1 hour at room temperature. After washing the blocked plates (3 times) with buffer 1, integrin (50 μL) and either inhibitor (serial dilution in buffer 1) or buffer 1 (50 μL) were added to the wells and incubated for one hour at RT. Plates were then washed (3 times) with buffer 1 and incubated with 100 μL of anti-human-Fc-HRP antibody conjugate (Sigma-Aldrich, Taufkirchen, Germany) in buffer 1 for 1 hour at RT. After additional washing steps (3 times) with buffer 1 50 μL of HRP substrate solution TMB (Seramun, Germany) were added to the wells. Colour development was stopped after 3-5 minutes with 50 μL 1M H2SO4. The developed colour was measured at 450 nm and analyzed as described above.

| SMILES | IC50 |
| --- | --- |
| O=C(CO[C@@H]1C[C@@H](CNc2ccccn2)N(C(=O)OCc2ccccc2)C1)NC[C@H](NC(=O)c1ccccc1[N+](=O)[O-])C(=O)O [Compound 96, 4-{[2-Carboxy-2-(2-nitro-benzoylamino)-ethylcarbamoyl]-methoxy}-2-(pyridin-2-ylaminomethyl)-pyrrolidine-1-carboxylic acid benzyl ester] | < 10 nM |
| O=C(CO[C@@H]1C[C@@H](CNc2ccccn2)N(C(=O)OCc2ccccc2)C1)NC[C@H](NC(=O)c1ccccc1Cl)C(=O)O [Compound 97, 4-{[2-Carboxy-2-(2-chloro-benzoylamino)-ethylcarbamoyl]-methoxy}-2-(pyridin-2-ylaminomethyl)-pyrrolidine-1-carboxylic acid benzyl ester] | < 10 nM |
| O=C(CO[C@@H]1C[C@@H](CNc2ccccn2)N(C(=O)OCc2ccccc2)C1)NC[C@H](NC(=O)c1ccccc1-c1ccccc1)C(=O)O [Compound 104, 4-({2-[(Biphenyl-2-carbonyl)-amino]-2-carboxy-ethylcarbamoyl}-methoxy)-2-(pyridin-2-ylaminomethyl)-pyrrolidine-1-carboxylic acid benzyl ester] | 10 to 500 nM |
| O=C(CO[C@@H]1C[C@@H](CNc2ccccn2)N(C(=O)OCc2ccccc2)C1)NC[C@H](NC(=O)C1(c2ccccc2)CC1)C(=O)O [Compound 106, 4-({2-Carboxy-2-[(1-phenyl-cyclopropanecarbonyl)-amino]-ethylcarbamoyl}-methoxy)-2-(pyridin-2-ylaminomethyl)-pyrrolidine-1-carboxylic acid benzyl ester] | 10 to 500 nM |
| CC(C)(C)C(=O)N[C@@H](CNC(=O)CO[C@@H]1C[C@@H](CNc2ccccn2)N(C(=O)OCc2ccccc2)C1)C(=O)O [Compound 117, 4-{[2-Carboxy-2-(2,2-dimethyl-propionylamino)-ethylcarbamoyl]-methoxy}-2-(pyridin-2-ylaminomethyl)-pyrrolidine-1-carboxylic acid benzyl ester] | < 10 nM |
| CCC(C)(C)C(=O)N[C@@H](CNC(=O)CO[C@@H]1C[C@@H](CNc2ccccn2)N(C(=O)OCc2ccccc2)C1)C(=O)O [Compound 118, 4-{[2-Carboxy-2-(2,2-dimethyl-butyrylamino)-ethylcarbamoyl]-methoxy}-2-(pyridin-2-ylaminomethyl)-pyrrolidine-1-carboxylic acid benzyl ester] | < 10 nM |
| CC(C)c1cc(C(C)C)c(C(=O)N[C@@H](CNC(=O)CO[C@@H]2C[C@@H](CNc3ccccn3)N(C(=O)OCc3ccccc3)C2)C(=O)O)c(C(C)C)c1 [Compound 126, 4-{[2-Carboxy-2-(2,4,6-triisopropyl-benzoylamino)-ethylcarbamoyl]-methoxy}-2-(pyridin-2-ylaminomethyl)-pyrrolidine-1-carboxylic acid benzyl ester] | > 500 nM |
| O=C(CO[C@@H]1C[C@@H](CNc2ccccn2)N(C(=O)OCc2ccccc2)C1)NC[C@H](NC(=O)CCCc1ccccc1)C(=O)O [Compound 127, 4-{[2-Carboxy-2-(4-phenyl-butyrylamino)-ethylcarbamoyl]-methoxy}-2-(pyridin-2-ylaminomethyl)-pyrrolidine-1-carboxylic acid benzyl ester] | 10 to 500 nM |
| Cc1cc(C)c(S(=O)(=O)N[C@@H](CNC(=O)CO[C@@H]2C[C@@H](CNc3ncccn3)N(C(=O)OCc3ccccc3)C2)C(=O)O)c(C)c1 [Compound 130, 4-{[2-Carboxy-2-(2,4,6-trimethyl-benzenesulfonylamino)-ethylcarbamoyl]-methoxy}-2-(pyrimidin-2-ylaminomethyl)-pyrrolidine-1-carboxylic acid benzyl ester] | > 500 nM |
| Cc1cc(C)c(S(=O)(=O)N[C@@H](CNC(=O)CO[C@@H]2C[C@@H](CNc3cc[nH]n3)N(C(=O)OCc3ccccc3)C2)C(=O)O)c(C)c1 [Compound 135, 4-{[2-Carboxy-2-(2,4,6-trimethyl-benzenesulfonylamino)-ethylcarbamoyl]-methoxy}-2-[(1H-pyrazol-3-ylamino)-methyl]-pyrrolidine-1-carboxylic acid benzyl ester] | > 500 nM |
| COc1ccnc(NC[C@@H]2C[C@@H](OCC(=O)NC[C@H](NC(=O)C3(C)CCCCC3)C(=O)O)CN2C(=O)CC(C)(C)C)c1 [Compound 148, 3-(2-{1-(3,3-Dimethyl-butyryl)-5-[(4-methoxy-pyridin-2-ylamino)-methyl]-pyrrolidin-3-yloxy}-acetylamino)-2-[(1-methyl-cyclohexanecarbonyl)-amino]-propionic acid] | < 10 nM |
| O=C(O)C[C@H](Cc1ccccc1)NC(=O)CO[C@@H]1C[C@@H](CNc2ccccn2)N(C(=O)OCc2ccccc2)C1 [Compound 150, 4-[(1-Carboxymethyl-2-phenyl-ethylcarbamoyl)-methoxy]-2-(pyridin-2-ylaminomethyl)-pyrrolidine-1-carboxylic acid benzyl ester] | > 500 nM |
| Cc1ccc(C[C@@H](CC(=O)O)NC(=O)CO[C@@H]2C[C@@H](CNc3ccccn3)N(C(=O)OCc3ccccc3)C2)cc1 [Compound 152, 4-[(1-Carboxymethyl-2-p-tolyl-ethylcarbamoyl)-methoxy]-2-(pyridin-2-ylaminomethyl)-pyrrolidine-1-carboxylic acid benzyl ester] | > 500 nM |
